# Laboratory results from ChEMBL document CHEMBL5696441 (Nat Chem Biol, 2011).
# Tests used:
# [1] = biological target: 5'-AMP-activated protein kinase catalytic subunit alpha-2 (Homo sapiens) (UniProt P54646); experiment: Inhibition of AMPK-alpha2 (unknown origin) assessed as remaining activity at 1 uM by Kinome scan method relative to control
# [2] = biological target: Cyclin-dependent kinase-like 5 (Homo sapiens) (UniProt O76039); experiment: Inhibition of CDKL5 (unknown origin) assessed as remaining activity at 1 uM by Kinome scan method relative to control
# [3] = biological target: Casein kinase I isoform delta (Homo sapiens) (UniProt P48730); experiment: Inhibition of CSNK1D (unknown origin) assessed as remaining activity at 1 uM by Kinome scan method relative to control
# Sequence of Casein kinase I isoform delta (Homo sapiens) (P48730 whole entry, looked up, canonical isoform): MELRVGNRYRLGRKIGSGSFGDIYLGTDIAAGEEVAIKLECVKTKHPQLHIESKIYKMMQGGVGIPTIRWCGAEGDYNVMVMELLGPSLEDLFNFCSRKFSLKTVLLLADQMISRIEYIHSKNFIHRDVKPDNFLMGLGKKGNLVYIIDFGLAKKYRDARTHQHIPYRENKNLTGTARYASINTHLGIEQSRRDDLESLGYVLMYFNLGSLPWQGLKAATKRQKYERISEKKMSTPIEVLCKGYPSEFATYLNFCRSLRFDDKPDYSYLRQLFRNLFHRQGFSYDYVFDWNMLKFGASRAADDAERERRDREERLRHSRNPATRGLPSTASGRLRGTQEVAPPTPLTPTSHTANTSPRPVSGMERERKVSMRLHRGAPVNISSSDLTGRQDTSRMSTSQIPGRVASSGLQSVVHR
# [4] = biological target: Death-associated protein kinase 1 (Homo sapiens) (UniProt P53355); experiment: Inhibition of DAPK1 (unknown origin) assessed as remaining activity at 1 uM by Kinome scan method relative to control
# [5] = biological target: Dual specificity tyrosine-phosphorylation-regulated kinase 2 (Homo sapiens) (UniProt Q92630); experiment: Inhibition of DYRK2 (unknown origin) assessed as remaining activity at 1 uM by Kinome scan method relative to control
# [6] = biological target: Tyrosine-protein kinase HCK (Homo sapiens) (UniProt P08631); experiment: Inhibition of HCK (unknown origin) assessed as remaining activity at 1 uM by Kinome scan method relative to control
# [7] = biological target: Homeodomain-interacting protein kinase 3 (Homo sapiens) (UniProt Q9H422); experiment: Inhibition of HIPK3 (unknown origin) assessed as remaining activity at 1 uM by Kinome scan method relative to control
# Sequence of Homeodomain-interacting protein kinase 3 (Homo sapiens) (Q9H422 whole entry, looked up): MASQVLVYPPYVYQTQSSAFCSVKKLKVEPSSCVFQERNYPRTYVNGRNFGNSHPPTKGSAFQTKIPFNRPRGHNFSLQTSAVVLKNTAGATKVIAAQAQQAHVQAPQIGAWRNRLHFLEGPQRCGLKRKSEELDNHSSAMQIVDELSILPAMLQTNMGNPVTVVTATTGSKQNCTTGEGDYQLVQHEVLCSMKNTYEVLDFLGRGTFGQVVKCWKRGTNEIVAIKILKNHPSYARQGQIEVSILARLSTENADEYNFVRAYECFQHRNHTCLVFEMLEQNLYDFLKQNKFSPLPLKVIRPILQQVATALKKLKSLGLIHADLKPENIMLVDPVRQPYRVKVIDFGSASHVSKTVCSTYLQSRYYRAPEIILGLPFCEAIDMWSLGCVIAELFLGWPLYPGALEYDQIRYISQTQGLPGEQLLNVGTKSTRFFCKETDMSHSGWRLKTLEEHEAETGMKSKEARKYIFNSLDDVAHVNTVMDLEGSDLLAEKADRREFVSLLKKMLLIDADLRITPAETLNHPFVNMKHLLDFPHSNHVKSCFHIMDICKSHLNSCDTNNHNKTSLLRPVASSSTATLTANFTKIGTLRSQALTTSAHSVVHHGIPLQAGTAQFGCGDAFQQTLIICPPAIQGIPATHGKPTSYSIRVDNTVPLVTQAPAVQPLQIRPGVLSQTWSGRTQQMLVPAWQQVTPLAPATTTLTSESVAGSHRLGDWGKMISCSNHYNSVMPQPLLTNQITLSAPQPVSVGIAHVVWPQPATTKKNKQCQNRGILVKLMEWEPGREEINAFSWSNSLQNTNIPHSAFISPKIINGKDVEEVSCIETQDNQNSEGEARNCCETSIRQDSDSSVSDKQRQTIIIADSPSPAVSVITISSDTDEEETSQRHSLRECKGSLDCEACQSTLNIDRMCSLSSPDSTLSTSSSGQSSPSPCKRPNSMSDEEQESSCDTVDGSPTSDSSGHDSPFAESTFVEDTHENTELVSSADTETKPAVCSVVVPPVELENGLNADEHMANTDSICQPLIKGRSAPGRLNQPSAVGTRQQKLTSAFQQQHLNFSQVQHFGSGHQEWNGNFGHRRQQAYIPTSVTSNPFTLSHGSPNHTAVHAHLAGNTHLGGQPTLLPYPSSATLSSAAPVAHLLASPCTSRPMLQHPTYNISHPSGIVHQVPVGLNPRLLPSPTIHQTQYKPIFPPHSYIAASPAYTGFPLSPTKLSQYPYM
# [8] = biological target: Mitogen-activated protein kinase 8 (Homo sapiens) (UniProt P45983); experiment: Inhibition of JNK1 (unknown origin) assessed as remaining activity at 1 uM by Kinome scan method relative to control
# [9] = biological target: LIM domain kinase 2 (Homo sapiens) (UniProt P53671); experiment: Inhibition of LIMK2 (unknown origin) assessed as remaining activity at 1 uM by Kinome scan method relative to control
# [10] = biological target: Tyrosine-protein kinase Lyn (Homo sapiens) (UniProt P07948); experiment: Inhibition of LYN (unknown origin) assessed as remaining activity at 1 uM by Kinome scan method relative to control
# [11] = biological target: Mitogen-activated protein kinase kinase kinase kinase 3 (Homo sapiens) (UniProt Q8IVH8); experiment: Inhibition of MAP4K3 (unknown origin) assessed as remaining activity at 1 uM by Kinome scan method relative to control
# Sequence of Mitogen-activated protein kinase kinase kinase kinase 3 (Homo sapiens) (Q8IVH8 whole entry): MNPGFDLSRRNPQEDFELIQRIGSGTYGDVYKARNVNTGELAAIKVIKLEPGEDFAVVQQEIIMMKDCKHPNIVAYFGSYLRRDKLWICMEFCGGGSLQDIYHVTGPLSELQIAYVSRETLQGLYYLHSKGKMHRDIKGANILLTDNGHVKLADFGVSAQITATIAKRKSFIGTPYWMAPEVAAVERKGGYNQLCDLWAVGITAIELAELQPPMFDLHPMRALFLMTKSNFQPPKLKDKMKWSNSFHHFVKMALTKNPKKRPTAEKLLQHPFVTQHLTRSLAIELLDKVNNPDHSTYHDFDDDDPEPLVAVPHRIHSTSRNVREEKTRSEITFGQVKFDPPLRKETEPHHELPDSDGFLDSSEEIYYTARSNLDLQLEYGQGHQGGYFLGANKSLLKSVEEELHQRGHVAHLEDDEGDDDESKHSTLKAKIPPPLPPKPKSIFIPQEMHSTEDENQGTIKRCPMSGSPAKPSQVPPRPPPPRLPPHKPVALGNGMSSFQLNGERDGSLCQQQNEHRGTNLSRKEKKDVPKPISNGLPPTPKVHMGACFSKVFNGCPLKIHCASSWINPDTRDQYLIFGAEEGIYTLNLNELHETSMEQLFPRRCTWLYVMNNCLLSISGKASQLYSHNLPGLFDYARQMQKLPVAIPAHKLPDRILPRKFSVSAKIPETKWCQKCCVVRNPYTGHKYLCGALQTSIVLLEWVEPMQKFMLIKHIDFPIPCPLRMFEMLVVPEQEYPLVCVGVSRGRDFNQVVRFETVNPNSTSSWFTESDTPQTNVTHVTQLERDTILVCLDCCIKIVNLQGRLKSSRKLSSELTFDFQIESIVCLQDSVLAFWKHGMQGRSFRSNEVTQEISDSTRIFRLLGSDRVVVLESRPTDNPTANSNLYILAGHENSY
# [12] = biological target: Mitogen-activated protein kinase kinase kinase kinase 4 (Homo sapiens) (UniProt O95819); experiment: Inhibition of MAP4K4 (unknown origin) assessed as remaining activity at 1 uM by Kinome scan method relative to control
# Sequence of Mitogen-activated protein kinase kinase kinase kinase 4 (Homo sapiens) (O95819 2-1239 limits assumed): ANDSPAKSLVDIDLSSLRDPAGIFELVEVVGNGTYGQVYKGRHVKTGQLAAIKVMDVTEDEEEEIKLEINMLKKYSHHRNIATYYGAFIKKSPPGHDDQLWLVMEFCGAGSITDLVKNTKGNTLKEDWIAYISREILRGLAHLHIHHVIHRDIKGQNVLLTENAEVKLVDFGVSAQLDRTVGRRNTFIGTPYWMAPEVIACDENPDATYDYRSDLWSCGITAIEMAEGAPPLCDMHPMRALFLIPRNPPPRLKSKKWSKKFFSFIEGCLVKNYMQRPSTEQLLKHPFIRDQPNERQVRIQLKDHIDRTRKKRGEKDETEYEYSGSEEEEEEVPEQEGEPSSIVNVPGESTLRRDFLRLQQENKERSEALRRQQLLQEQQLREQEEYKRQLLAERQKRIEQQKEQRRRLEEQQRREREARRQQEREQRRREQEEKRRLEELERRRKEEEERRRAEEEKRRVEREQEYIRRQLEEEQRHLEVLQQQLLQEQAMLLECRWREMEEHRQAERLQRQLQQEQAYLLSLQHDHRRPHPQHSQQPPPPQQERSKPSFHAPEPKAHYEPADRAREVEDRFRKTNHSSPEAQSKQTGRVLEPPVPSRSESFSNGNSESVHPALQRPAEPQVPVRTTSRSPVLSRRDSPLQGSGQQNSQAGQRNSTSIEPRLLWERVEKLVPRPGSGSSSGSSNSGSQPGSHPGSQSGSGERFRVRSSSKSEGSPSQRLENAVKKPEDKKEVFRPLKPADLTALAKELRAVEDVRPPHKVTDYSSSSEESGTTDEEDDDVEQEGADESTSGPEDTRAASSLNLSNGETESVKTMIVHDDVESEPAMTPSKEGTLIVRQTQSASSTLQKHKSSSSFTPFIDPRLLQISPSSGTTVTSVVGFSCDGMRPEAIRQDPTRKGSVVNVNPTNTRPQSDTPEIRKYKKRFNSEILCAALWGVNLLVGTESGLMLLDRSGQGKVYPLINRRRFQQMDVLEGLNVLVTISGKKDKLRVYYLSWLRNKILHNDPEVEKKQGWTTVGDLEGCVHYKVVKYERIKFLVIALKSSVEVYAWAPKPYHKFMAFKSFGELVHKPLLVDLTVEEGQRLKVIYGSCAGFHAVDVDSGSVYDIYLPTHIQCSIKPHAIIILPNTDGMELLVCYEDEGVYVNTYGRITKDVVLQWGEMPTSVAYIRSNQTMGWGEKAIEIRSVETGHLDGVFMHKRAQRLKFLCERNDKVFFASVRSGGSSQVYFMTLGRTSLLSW
# [13] = biological target: Dual specificity mitogen-activated protein kinase kinase 6 (Homo sapiens) (UniProt P52564); experiment: Inhibition of MEK6 (unknown origin) assessed as remaining activity at 1 uM by Kinome scan method relative to control
# Sequence of Dual specificity mitogen-activated protein kinase kinase 6 (Homo sapiens) (P52564 whole entry): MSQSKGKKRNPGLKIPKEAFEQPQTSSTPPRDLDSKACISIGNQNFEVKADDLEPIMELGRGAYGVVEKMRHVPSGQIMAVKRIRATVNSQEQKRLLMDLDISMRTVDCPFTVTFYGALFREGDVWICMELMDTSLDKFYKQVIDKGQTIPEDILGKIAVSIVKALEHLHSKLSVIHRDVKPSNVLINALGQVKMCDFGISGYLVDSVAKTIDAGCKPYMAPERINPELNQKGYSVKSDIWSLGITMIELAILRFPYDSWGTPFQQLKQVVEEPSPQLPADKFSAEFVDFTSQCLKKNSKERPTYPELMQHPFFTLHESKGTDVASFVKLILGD
# [14] = biological target: Maternal embryonic leucine zipper kinase (Homo sapiens) (UniProt Q14680); experiment: Inhibition of MELK (unknown origin) assessed as remaining activity at 1 uM by Kinome scan method relative to control
# [15] = biological target: Mitogen-activated protein kinase 14 (Homo sapiens) (UniProt Q16539); experiment: Inhibition of non-phosphorylated human N-terminal His-P38alpha overexpressed in Escherichia coli BL21 (DE3) assessed as remaining activity at 1 uM by Kinome scan method relative to control
# Sequence of Mitogen-activated protein kinase 14 (Homo sapiens) (Q16539 whole entry): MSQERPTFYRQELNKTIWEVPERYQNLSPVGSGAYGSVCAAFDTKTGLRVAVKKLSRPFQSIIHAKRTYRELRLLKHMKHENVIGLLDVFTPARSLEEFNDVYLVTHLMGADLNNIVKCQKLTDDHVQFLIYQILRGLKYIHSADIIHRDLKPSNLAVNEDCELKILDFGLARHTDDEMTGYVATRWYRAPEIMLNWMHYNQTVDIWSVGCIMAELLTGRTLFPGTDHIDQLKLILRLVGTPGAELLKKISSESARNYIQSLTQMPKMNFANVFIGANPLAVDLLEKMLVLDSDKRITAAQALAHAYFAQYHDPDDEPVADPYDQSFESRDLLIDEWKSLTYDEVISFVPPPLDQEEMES
# [16] = biological target: Cyclin-dependent kinase 16 (Homo sapiens) (UniProt Q00536); experiment: Inhibition of PCTK1 (unknown origin) assessed as remaining activity at 1 uM by Kinome scan method relative to control
# Sequence of Cyclin-dependent kinase 16 (Homo sapiens) (Q00536 whole entry, canonical isoform): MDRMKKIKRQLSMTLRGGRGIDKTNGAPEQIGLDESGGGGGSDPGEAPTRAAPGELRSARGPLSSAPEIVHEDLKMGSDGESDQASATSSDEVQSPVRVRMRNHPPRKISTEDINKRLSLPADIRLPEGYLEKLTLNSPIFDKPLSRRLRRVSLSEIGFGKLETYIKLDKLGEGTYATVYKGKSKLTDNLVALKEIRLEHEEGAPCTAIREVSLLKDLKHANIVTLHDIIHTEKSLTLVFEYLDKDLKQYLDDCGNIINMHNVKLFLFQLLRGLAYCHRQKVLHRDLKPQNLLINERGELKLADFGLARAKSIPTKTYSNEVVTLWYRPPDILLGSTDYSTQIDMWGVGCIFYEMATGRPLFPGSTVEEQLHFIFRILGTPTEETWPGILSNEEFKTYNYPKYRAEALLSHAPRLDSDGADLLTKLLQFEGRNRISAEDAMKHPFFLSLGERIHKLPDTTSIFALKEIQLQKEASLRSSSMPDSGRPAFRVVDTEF
# [17] = biological target: Phosphatidylinositol 4,5-bisphosphate 3-kinase catalytic subunit delta isoform (Homo sapiens) (UniProt O00329); experiment: Inhibition of PIK3CD (unknown origin) assessed as remaining activity at 1 uM by Kinome scan method relative to control
# [18] = biological target: Receptor-interacting serine/threonine-protein kinase 4 (Homo sapiens) (UniProt P57078); experiment: Inhibition of RIPK4 (unknown origin) assessed as remaining activity at 1 uM by Kinome scan method relative to control
# [19] = biological target: Serine/threonine-protein kinase 33 (Homo sapiens) (UniProt Q9BYT3); experiment: Inhibition of STK33 (unknown origin) assessed as remaining activity at 1 uM by Kinome scan method relative to control
# [20] = biological target: T1, Tyrosine-protein kinase TXK (Homo sapiens) (UniProt P42681); experiment: Inhibition of TXK (unknown origin) assessed as remaining activity at 1 uM by Kinome scan method relative to control
# T1 sequence (whole entry): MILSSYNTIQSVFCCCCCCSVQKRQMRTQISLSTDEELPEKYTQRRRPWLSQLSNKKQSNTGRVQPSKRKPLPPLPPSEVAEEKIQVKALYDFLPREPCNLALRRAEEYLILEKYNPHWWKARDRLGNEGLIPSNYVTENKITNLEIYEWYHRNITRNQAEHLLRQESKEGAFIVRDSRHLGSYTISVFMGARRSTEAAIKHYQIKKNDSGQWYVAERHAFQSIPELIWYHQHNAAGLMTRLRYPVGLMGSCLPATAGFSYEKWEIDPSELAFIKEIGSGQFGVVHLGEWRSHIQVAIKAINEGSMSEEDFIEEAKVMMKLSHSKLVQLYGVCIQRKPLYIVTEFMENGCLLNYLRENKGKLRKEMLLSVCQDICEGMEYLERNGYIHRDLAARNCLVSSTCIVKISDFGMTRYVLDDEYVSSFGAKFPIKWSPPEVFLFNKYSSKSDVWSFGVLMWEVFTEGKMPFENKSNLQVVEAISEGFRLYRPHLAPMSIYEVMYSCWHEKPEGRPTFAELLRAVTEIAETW
# [21] = biological target: Serine/threonine-protein kinase 32B (Homo sapiens) (UniProt Q9NY57); experiment: Inhibition of YANK2 (unknown origin) assessed as remaining activity at 1 uM by Kinome scan method relative to control
# [22] = biological target: Mitogen-activated protein kinase kinase kinase 19 (Homo sapiens) (UniProt Q56UN5); experiment: Inhibition of YSK4 (unknown origin) assessed as remaining activity at 1 uM by Kinome scan method relative to control
Structure (SMILES),Activity [1],Activity [2],Activity [3],Activity [4],Activity [5],Activity [6],Activity [7],Activity [8],Activity [9],Activity [10],Activity [11],Activity [12],Activity [13],Activity [14],Activity [15],Activity [16],Activity [17],Activity [18],Activity [19],Activity [20],other results
Nc1ccccc1Nc1ccc2c(c1)CCc1ccccc1C2=O,95%,96%,98%,95%,75%,93%,64%,97%,94%,99%,75%,94%,76%,86%,0.2%,98%,62%,80%,82%,90%,Activity [21]: 89%; Activity [22]: 99%
O=C1c2ccc(Nc3ccc(F)cc3F)cc2CCc2ccc(OC[C@H](O)CO)cc21 [Skepinone-L],100%,100%,100%,100%,86%,97%,67%,75%,100%,93%,88%,100%,82%,94%,0.2%,85%,70%,90%,100%,86%,Activity [21]: 98%; Activity [22]: 100%
